Results reported in US20240109917A1 (ACTELION PHARMACEUTICALS LTD, priority 2020, published 2024).

Columns and labels:
[1] = target: Tb-labeled inactive PDGFRβ (Homo sapiens (Human), UniProt P09619); test: PDGFRβ LanthaScreen Assay; format: binding; settings: read-out: PDGFR Lantha IC50
PDGFRβ = PDGFRβ (Rattus norvegicus (Rat), UniProt Q05030); test: PDGFRβ Cellular Assay (PDGFRb P-Y751 HTRF in A10 cells stimulated with PDGF-BB); format: cell-based; settings: read-out: PDGFR Cellular IC50
Summary of the method: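 Rat A10 cells, plated overnight, were treated with compound for 3 hours, then stimulated with PDGF-BB (working stock 100 ng/mL in 10% FBS medium). After lysis, PDGFRβ P-Y751 was detected by HTRF.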

VEGFR2, unphosphorylated = VEGFR2, unphosphorylated (Homo sapiens (Human), UniProt P35968); test: VEGFR ADP GLO Assay; format: biochemical
Chain of VEGFR2, unphosphorylated (P35968 20-1356): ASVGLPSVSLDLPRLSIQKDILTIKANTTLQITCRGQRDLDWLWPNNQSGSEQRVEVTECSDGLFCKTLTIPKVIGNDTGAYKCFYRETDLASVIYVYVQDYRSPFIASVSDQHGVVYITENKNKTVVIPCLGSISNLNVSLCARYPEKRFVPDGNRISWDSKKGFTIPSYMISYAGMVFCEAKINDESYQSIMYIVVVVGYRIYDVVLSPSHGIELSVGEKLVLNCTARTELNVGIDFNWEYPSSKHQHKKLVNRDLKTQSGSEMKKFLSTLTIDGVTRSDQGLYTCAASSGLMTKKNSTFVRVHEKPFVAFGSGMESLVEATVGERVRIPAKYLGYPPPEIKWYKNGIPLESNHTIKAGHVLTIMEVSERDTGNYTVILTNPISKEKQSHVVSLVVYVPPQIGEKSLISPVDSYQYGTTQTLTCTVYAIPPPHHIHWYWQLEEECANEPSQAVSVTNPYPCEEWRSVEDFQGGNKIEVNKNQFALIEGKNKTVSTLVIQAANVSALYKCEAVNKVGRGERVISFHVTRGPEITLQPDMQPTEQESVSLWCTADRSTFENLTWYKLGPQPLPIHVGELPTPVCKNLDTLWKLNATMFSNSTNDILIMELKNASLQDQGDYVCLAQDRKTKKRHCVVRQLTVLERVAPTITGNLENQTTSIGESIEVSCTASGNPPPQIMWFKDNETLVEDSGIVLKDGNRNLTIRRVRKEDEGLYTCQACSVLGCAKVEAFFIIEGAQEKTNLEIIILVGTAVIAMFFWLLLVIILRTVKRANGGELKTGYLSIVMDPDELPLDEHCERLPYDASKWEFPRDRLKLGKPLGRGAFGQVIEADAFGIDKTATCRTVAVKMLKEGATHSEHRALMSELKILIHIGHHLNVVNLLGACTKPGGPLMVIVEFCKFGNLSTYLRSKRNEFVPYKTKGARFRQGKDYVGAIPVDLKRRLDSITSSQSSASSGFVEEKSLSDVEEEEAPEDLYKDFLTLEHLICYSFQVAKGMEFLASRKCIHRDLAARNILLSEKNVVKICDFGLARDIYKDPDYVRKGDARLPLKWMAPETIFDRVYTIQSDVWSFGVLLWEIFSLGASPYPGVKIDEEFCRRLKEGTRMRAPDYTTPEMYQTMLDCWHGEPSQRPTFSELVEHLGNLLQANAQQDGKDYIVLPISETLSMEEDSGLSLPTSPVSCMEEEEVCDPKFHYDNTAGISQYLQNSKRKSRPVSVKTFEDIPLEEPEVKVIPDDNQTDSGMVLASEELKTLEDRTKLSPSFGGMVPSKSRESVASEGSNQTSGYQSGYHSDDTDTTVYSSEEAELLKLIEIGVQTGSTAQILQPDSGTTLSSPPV

Chain of Tb-labeled inactive PDGFRβ (P09619 33-1106): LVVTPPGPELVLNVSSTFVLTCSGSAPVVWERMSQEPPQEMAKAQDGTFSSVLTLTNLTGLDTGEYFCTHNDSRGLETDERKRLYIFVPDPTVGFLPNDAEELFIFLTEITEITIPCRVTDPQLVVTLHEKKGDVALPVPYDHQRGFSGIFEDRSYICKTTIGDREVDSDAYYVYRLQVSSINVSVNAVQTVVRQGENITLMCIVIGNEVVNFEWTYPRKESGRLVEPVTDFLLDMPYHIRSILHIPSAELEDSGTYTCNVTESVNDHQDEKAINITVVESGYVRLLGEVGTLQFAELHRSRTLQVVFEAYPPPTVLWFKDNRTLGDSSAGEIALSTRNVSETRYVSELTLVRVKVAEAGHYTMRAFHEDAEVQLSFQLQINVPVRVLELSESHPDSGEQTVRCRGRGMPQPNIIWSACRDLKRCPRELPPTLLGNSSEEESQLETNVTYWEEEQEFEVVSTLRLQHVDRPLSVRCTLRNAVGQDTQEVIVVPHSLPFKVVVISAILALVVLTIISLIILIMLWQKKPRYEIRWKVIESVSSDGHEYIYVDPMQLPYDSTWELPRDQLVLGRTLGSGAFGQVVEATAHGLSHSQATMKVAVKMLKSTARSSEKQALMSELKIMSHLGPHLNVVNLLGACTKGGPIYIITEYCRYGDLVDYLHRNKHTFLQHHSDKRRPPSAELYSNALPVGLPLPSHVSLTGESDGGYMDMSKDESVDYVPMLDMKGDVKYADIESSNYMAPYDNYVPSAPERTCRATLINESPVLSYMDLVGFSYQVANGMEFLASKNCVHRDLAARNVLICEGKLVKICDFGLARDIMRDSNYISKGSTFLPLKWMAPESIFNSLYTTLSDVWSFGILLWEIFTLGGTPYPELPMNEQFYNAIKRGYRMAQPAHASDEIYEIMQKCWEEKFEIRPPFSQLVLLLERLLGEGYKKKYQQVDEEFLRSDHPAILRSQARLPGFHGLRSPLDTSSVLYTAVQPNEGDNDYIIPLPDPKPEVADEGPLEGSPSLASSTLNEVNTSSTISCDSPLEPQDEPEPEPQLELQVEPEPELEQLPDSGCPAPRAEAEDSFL
Chain of PDGFRβ (Q05030 32-1097): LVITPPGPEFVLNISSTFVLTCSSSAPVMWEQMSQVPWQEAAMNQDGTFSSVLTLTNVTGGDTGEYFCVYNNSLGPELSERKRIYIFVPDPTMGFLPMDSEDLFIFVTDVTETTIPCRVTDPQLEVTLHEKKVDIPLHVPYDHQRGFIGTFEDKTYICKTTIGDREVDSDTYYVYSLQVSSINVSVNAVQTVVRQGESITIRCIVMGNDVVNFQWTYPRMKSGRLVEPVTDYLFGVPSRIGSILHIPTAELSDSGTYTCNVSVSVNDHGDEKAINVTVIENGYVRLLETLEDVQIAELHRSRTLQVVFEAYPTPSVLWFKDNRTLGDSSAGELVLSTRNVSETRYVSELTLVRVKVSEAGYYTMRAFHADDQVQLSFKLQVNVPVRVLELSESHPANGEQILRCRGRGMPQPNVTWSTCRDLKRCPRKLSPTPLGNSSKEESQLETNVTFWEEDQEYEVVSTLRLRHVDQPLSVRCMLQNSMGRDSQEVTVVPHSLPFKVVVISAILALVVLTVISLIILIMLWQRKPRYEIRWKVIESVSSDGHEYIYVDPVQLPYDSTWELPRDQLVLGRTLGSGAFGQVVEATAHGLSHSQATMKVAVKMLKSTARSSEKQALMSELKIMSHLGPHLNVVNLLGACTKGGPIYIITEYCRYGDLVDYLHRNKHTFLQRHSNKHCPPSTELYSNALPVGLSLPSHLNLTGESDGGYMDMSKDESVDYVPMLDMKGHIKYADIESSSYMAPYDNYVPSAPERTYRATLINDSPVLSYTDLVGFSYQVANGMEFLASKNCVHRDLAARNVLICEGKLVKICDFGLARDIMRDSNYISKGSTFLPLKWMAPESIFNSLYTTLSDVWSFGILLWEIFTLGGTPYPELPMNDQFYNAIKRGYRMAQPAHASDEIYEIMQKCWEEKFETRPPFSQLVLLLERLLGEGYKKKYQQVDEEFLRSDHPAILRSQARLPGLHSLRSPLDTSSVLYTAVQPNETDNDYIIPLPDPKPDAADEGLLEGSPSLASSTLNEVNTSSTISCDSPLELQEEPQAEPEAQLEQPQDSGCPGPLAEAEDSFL

SMILES	IC50 [1]	IC50 (PDGFRβ)	IC50 (VEGFR2, unphosphorylated)
Cc1ncc(NC(=O)CN2CCCC2(C)C)cc1NC(=O)c1cnn2cc(-c3cnn(C)c3)sc12 [Example 13, N-(5-(2-(2,2-dimethylpyrrolidin-1-yl)acetamido)-2-methylpyridin-3-yl)-2-(1-methyl-1H-pyrazol-4-yl)pyrazolo[5,1-b]thiazole-7-carboxamide]	5 nM	3.3 nM	> 7500 nM
Cc1cc(C(=O)NCCN(C)C2CCOCC2)sc1NC(=O)c1cnn2cc(-c3cnn(C)c3)sc12 [Example 192, 2-(1-methyl-1H-pyrazol-4-yl)-N-(3-methyl-5-((2-(methyl(tetrahydro-2H-pyran-4-yl)amino)ethyl)carbamoyl)thiophen-2-yl)pyrazolo[5,1-b]thiazole-7-carboxamide]	1380 nM	> 3000 nM	> 7500 nM
Cc1cc(C(=O)NCCN2CCCC2(C)C)sc1NC(=O)c1cnn2cc(-c3cnn(C)n3)sc12 [Example 186, N-(5-((2-(2,2-dimethylpyrrolidin-1-yl)ethyl)carbamoyl)-3-methylthiophen-2-yl)-2-(2-methyl-2H-1,2,3-triazol-4-yl)pyrazolo[5,1-b]thiazole-7-carboxamide]	2250 nM	593 nM	> 7500 nM
Cc1cc(C(=O)NCCN2CCC(C)(C)C2)sc1NC(=O)c1cnn2cc(-c3cnn(C)c3)sc12 [Example 189, N-(5-((2-(3,3-dimethylpyrrolidin-1-yl)ethyl)carbamoyl)-3-methylthiophen-2-yl)-2-(1-methyl-1H-pyrazol-4-yl)pyrazolo[5,1-b]thiazole-7-carboxamide]	319 nM	72.3 nM	> 7500 nM
Cn1cc(-c2cn3ncc(C(=O)Nc4sc(C(=O)NCCN5CCCC56CCC6)cc4C#N)c3s2)cn1 [Example 206, N-(5-((2-(5-azaspiro[3.4]octan-5-yl)ethyl)carbamoyl)-3-cyanothiophen-2-yl)-2-(1-methyl-1H-pyrazol-4-yl)pyrazolo[5,1-b]thiazole-7-carboxamide]	> 3000 nM	> 3000 nM	> 2500 nM
Cc1ncc(NC(=O)OCCN(C)C2CCCCC2)cc1NC(=O)c1cnn2cc(-c3cnn(C)c3)sc12 [Example 251, 2-(cyclohexyl(methyl)amino)ethyl (6-methyl-5-(2-(1-methyl-1H-pyrazol-4-yl)pyrazolo[5,1-b]thiazole-7-carboxamido)pyridin-3-yl)carbamate]	33.6 nM	28.4 nM	> 7500 nM
Cc1cc(C(=O)NCCN2CCCC2(C)C)sc1NC(=O)c1cnn2cc(-c3ccn(C)n3)sc12 [Example 188, N-(5-((2-(2,2-dimethylpyrrolidin-1-yl)ethyl)carbamoyl)-3-methylthiophen-2-yl)-2-(1-methyl-1H-pyrazol-3-yl)pyrazolo[5,1-b]thiazole-7-carboxamide]	683 nM	347 nM	> 7500 nM
Cc1ncc(C(=O)NCCN2C[C@H]3CC[C@@H]2C3)cc1NC(=O)c1cnn2cc(-c3cn(C)nc3C)sc12 [Example 211, N-(5-((2-((1R,4S)-2-azabicyclo[2.2.1]heptan-2-yl)ethyl)carbamoyl)-2-methylpyridin-3-yl)-2-(1,3-dimethyl-1H-pyrazol-4-yl)pyrazolo[5,1-b]thiazole-7-carboxamide]	2.4 nM	63.6 nM	> 7500 nM
